Measurements from patent US20220249415A1, “COMPOSITION OF AZELAIC ACID HAVING ADIPOSE TRIGLYCERIDE HYDROLYSIS EFFECT” (Korea University Research and Business Foundation, priority 2018, published 2022).

Assays:
[1] = reported results of a study; formed in the body; cited from earlier work
3T3-L1 adipocytes [2] = assay: Glycerol release (triglyceride hydrolysis) from 3T3-L1 adipocytes; format: cell-based, mouse; conditions: 50 μM azelaic acid, 2 hours
Description: Further, in order to confirm whether or not azelaic acid has an effect of hydrolyzing triglycerides, a release amount of glycerol corresponding to a product of triglyceride hydrolysis was measured.

3T3-L1 adipocytes [3] = assay: cAMP assay (ELISA kit) in 3T3-L1 adipocytes; format: cell-based, mouse; conditions: 50 μM azelaic acid, 18 hours
Description: Therefore, changes in concentrations of cAMP, IP-one (metabolite of IP3), and calcium, which are second messengers by azelaic acid corresponding to the Olfr544 ligand, in 3T3-L1 adipocytes were measured. Since IP3 has low stability to thereby be easily decomposed to IP-one, an amount of intracellular IP-One (metabolite of IP3) was quantified instead of IP3.
cAMP assay uses the principle to estimate a production amount of cAMP corresponding to a second messenger of a GPCR receptor activated by a ligand using a cAMP standard calibration curve. A 96-well plate included in a cAMP assay ELISA kit (Enzo Life science, New York, U.S.) was coated with a G×R IgG antibody, and after cAMP of a blue solution for obtaining the standard calibration curve was bound to alkaline phosphatase, the color of the blue solution was changed to yellow by a rabbit antibody. When alkaline phosphatase was activated by adding a pNpp substrate to a well bound to cAMP, a color change occurred, such that the concentration of cAMP may be measured at a wavelength of 405 nm using colorimetric analysis. In the present experiment, 1×10^4 3T3-L1 adipocytes were seeded in each well of the 96-well plate and differentiated, and then treated with 50 μM azelaic acid and 1 μM Foskolin corresponding to a positive control for 18 hours. Then, the concentration of cAMP was measured by the method described above.

HepG2 cells = assay: qPCR of anti-obesity gene in HepG2 cells, with OR2K2 knock-down; format: cell-based, human
Description: In-vitro equivalence confirmation: HepG2 cells, which are a human liver tissue cell line, and hAMSC cells, which are a human adipocyte line, were treated with azelaic acid and the anti-obesity gene was measured through a qPCR method.

Olfr544 = Olfr544 (Mus musculus, UniProt E9PX47); assay: CRE-luciferase reporter gene assay in Hana3A cell line transfected with Olfr544 expression vector; format: cell-based
Description: In order to evaluate an activity of azelaic acid as an Olfr544 ligand in vitro assay, reporter gene assay was performed. Generally, a degree of gene expression of the olfactory receptor (OR) in tissue cells was low and a degree of protein expression also was low, such that research into the olfactory receptor was difficult. In order to solve this problem, a Hana3A cell line was supplied from a team led by professor Hiroaki Matsunami of Duke University and used in an experiment (Zhuang H., et al., Nat. Protocol, 3:1402-1413, 2008).
The reporter gene assay was performed as follows. First, after an Olfr544 expression vector and a cAMP response element (CRE)-Luciferase reporter vector were transfected into the Hana3A cell line, the transfected Hana3A cell line was treated with azelaic acid for 18 hours. Then, a luciferase activity was measured using a Firefly luciferase (FL) assay kit, and a dose response curve (DRC) was drawn based on the measured luciferase activity, thereby calculating a 50% effective concentration (EC50) corresponding to an index for determining an effect as a ligand (agonist).

Sequence of Olfr544 (E9PX47 entry or part of it): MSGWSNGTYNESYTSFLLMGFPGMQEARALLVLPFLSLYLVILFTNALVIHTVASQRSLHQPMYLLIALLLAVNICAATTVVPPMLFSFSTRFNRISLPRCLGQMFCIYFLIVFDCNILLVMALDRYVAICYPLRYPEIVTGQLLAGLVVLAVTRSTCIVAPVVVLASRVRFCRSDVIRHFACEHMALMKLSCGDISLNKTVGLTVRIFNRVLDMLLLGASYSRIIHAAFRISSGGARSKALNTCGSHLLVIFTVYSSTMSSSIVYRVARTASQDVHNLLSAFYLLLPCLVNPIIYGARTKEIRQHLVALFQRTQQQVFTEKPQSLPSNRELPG

## O=C(O)CCCCCCCC(=O)O [azelaic acid, nonanedioic acid]
[1]
  concentration of azelaic acid in a human body: 10 to 50 µM
3T3-L1 adipocytes [2]
  glycerol (product of triglyceride hydrolysis) increased as compared to the control: 46.7%
3T3-L1 adipocytes [3]
  concentration of intracellular cAMP: significantly increased
HepG2 cells; human liver tissue cell line (HepG2)
  effect on gene expression when the OR2K2 gene was knocked down: disappear
HepG2 cells; liver tissue cells (HepG2) treated with azelaic acid
  fatty acid oxidation gene expression (qPCR): increased
Olfr544; Olfr544 + CRE-Luciferase reporter in Hana3A cells, 18 hours
  EC50: 29.7 µM
Olfr544; concentration range of 1 to 1000 μM
  Olfr544 activity: concentration-dependently increased
